In assay [1] the target is T1, Zinc finger protein mex-5 (Caenorhabditis elegans, UniProt Q9XUB2).
T1 sequence (Q9XUB2 whole entry): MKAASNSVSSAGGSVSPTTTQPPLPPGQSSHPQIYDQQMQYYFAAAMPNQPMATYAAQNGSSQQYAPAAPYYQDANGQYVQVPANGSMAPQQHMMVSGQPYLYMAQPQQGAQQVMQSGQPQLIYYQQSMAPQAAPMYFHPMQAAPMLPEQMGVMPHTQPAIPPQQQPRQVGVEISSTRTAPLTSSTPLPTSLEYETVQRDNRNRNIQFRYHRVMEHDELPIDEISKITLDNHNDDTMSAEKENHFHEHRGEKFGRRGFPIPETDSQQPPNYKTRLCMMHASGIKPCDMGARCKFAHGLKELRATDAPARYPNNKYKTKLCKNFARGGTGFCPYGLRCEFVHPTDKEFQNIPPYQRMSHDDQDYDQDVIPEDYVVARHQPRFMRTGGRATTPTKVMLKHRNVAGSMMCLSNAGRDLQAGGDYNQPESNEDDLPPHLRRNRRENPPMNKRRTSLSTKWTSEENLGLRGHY
Nature of the assay: potency of MEX-5 RNA-binding blockers – biochemical, C. elegans, fluorescence polarization, dose response (AID 1960). (Fluorescence polarisation rises when a labelled molecule tumbles more slowly, as on binding a larger partner.)

A further assay addresses T2, ORF 73 (Human herpesvirus 8, UniProt O40947).
T2 sequence (O40947 whole entry): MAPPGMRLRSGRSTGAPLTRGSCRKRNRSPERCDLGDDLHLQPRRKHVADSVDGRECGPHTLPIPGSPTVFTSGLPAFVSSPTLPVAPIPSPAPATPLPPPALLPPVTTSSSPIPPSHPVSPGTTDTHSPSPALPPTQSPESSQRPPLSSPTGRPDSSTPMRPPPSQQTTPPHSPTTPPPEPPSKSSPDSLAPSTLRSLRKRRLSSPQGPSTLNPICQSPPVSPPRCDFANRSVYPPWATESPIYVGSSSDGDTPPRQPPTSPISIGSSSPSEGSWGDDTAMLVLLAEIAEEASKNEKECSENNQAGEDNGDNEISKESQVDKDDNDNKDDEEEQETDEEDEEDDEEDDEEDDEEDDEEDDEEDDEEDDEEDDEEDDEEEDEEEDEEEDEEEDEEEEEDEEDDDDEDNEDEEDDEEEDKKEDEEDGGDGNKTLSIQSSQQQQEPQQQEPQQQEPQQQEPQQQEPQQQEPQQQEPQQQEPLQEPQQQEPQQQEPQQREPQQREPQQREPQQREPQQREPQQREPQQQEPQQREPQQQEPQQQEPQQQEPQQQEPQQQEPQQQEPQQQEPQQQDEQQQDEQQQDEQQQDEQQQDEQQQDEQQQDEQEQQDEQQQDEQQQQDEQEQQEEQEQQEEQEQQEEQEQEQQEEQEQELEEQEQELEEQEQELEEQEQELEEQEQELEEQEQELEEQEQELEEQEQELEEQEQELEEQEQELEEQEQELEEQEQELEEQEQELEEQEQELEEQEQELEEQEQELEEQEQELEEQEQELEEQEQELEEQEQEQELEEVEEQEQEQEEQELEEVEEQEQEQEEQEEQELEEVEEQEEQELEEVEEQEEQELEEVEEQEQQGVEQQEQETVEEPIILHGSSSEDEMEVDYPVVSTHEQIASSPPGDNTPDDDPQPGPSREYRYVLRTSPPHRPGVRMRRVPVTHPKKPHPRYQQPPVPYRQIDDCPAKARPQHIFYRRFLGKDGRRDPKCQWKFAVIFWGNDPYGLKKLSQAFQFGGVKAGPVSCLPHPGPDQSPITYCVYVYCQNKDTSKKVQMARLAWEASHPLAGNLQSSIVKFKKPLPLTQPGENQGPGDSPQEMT
Description: KSHV LANA DNA-binding disruption – biochemical, fluorescence polarization, cherry-picked samples, dose response (AID 504725).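 Also: fluorescence polarization of a labeled DNA duplex reporting LANA DNA binding; potency is for inhibitors that block LANA binding to the DNA.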 Also on record: species or system Human gammaherpesvirus 8.

The target in assay [2] is T3, Rac GTPase-activating protein 1 (Homo sapiens, UniProt Q9H0H5).
T3 sequence (Q9H0H5 whole entry): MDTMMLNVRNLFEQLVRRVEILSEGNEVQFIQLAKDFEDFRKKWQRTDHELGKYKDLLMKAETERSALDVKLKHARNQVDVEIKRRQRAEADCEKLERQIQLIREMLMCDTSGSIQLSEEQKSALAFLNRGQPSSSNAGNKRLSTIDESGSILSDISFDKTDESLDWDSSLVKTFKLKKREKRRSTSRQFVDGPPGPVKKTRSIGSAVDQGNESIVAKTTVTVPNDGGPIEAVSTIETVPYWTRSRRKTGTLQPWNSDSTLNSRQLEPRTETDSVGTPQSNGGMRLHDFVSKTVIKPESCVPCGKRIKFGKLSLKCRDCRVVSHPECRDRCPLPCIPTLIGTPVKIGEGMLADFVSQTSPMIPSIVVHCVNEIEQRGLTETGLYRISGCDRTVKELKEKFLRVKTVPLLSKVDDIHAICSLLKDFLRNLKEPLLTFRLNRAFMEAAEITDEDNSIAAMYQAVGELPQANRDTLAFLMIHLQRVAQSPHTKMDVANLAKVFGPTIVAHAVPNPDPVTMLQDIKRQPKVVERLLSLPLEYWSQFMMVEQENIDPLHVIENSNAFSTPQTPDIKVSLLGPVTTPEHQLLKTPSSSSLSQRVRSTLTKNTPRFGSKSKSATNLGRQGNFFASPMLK
Nature of the assay: blockers of MgcRacGAP-driven Rac1 GTP hydrolysis – biochemical, ADP Hunter fluorescence, primary and confirmatory, confirmation (AID 624330). It counts as functional.

The target of assay [3] is T4, RNA-binding protein pos-1 (Caenorhabditis elegans, UniProt G5EF15).
T4 sequence (G5EF15 whole entry): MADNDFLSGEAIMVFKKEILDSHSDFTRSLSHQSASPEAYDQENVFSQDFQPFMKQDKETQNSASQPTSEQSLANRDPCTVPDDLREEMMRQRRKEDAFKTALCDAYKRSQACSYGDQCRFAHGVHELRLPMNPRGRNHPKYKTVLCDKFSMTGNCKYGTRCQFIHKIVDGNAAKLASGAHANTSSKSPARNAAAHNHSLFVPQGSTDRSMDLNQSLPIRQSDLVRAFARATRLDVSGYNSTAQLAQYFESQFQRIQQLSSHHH
Nature of the assay: disruptors of C. elegans POS-1 RNA interaction – biochemical, fluorescence polarization, dose response (AID 1964).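 Also: purified POS-1 fused to maltose binding protein made in E. coli; potency of compounds blocking POS-1 binding to fluorescent RNA.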

In the next assay the target is Genome polyprotein (dengue virus type 2, UniProt P29990). Nature of the assay: flavivirus cap methylation enzyme inhibition – biochemical, confirmation dose response, primary screen (AID 588689). In kind it is functional.
The target of assay [4] is T5, Microphthalmia-associated transcription factor (Homo sapiens, UniProt O75030).
T5 sequence (O75030 whole entry): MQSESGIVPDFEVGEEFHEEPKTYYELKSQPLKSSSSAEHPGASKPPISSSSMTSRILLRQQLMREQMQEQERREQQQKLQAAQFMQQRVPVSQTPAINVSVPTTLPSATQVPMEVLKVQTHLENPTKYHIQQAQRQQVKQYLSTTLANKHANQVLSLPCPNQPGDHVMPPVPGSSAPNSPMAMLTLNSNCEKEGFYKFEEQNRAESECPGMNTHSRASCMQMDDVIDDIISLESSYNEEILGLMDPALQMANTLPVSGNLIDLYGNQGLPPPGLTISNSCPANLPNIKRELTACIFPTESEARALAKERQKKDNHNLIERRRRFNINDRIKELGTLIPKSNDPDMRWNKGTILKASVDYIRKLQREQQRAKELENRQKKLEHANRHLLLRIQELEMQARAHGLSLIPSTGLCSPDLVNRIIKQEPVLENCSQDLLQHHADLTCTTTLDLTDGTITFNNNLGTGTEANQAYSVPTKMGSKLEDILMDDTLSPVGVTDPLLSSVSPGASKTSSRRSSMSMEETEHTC
Nature of the assay: reducers of TRPM1 reporter luminescence, concentration series – cell-based, SK-MEL-5, cherry-picked, set 3, MITF inhibitor project, dose response (AID 493073).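 Also: SK-MEL-5 melanoma cells with luciferase driven by the MITF target TRPM1 promoter.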 It counts as functional.

Another assay addresses Beta-galactosidase (Escherichia coli, UniProt Q8VNN2). In kind it is functional.
The target of assay [5] is T6, Kappa-type opioid receptor (Homo sapiens, UniProt P41145). It counts as functional.
Assay [6] has as its target T6, Kappa-type opioid receptor. In kind it is functional. The source holds these as a separate data set.
Assay [7] concerns the target DNA dC->dU-editing enzyme APOBEC-3G (Homo sapiens, UniProt Q9HC16). Description: Dose Response confirmation of small molecule APOBEC3G DNA Deaminase Inhibitors via a fluorescence-based single-stranded DNA deaminase assay. [Related pubchem assays (depositor defined):AID493012, AID493028]. In kind it is functional.
Assay [8] is described as follows: Vero E6 cell cytotoxicity, dose response, cytotoxicity control for non-replicating M. tuberculosis project, secondary assay (AID 492998). In kind it is functional, VeroE6. To be noted: Vero C1008.
Assay [9] in a line: HepG2 cell cytotoxicity, dose response, cytotoxicity control for non-replicating M. tuberculosis project (AID 489018). In kind it is functional. To be noted: Mycobacterium tuberculosis.
The nature of the next assay: cells. It counts as functional.
A short description of assay [10]: THP-1 cell cytotoxicity, dose response, cytotoxicity control for non-replicating M. tuberculosis project (AID 489025). It counts as functional.
In assay [11] the target is Eukaryotic translation initiation factor 4H (Homo sapiens, UniProt Q15056). Description: inhibitors of translation initiation factor eIF4H – SAR follow-up (AID 435011). In kind it is functional.
The target of assay [12] is Polyadenylate-binding protein 1 (Homo sapiens, UniProt P11940). Description: PABP inhibition in translation initiation, SAR follow-up (AID 435018). In kind it is functional.
Assay [13] deals with Peroxisome proliferator-activated receptor gamma/Nuclear receptor coactivator 1 (Homo sapiens, UniProt P37231). In kind it is functional.
Assay [14] concerns the target Peroxisome proliferator-activated receptor gamma/Nuclear receptor coactivator 3 (Homo sapiens, UniProt P37231). It counts as functional.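 Also: agonist potency for raising coactivator recruitment to the receptor.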
In assay [15] the target is Peroxisome proliferator-activated receptor gamma/Nuclear receptor coactivator 2 (Homo sapiens, UniProt P37231). It counts as functional.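 Also: agonist potency for raising coactivator recruitment to the receptor.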
For a further assay, the target named is T7, Streptokinase A (Streptococcus pyogenes serotype M1, UniProt P10520).
T7 sequence (P10520 whole entry): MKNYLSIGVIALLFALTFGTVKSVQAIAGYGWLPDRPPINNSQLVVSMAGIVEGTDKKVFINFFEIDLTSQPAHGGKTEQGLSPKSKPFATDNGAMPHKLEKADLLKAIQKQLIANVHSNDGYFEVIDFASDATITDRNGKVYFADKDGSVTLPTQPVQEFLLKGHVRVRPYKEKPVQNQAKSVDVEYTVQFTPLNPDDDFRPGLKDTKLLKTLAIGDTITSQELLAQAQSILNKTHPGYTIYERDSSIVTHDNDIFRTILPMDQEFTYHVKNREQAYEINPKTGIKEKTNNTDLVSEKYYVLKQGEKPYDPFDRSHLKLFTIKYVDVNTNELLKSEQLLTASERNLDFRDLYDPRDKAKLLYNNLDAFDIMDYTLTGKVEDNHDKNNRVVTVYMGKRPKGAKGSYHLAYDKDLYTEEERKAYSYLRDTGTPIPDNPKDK
Description: viability-normalized secreted streptokinase activity reduction – plasminogen activation absorbance, OD405, dose response (AID 1914).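 Also: secreted streptokinase activity via plasminogen activation per viability signal from cell pellet.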 It counts as functional, Streptococcus pyogenes M1 GAS.

Assay [16] has as its system Streptococcus sp. 'group A'. Nature of the assay: Streptococcus pyogenes SK(-)GAS viability under kanamycin – luminescence, BacTiterGlo, confirmation, counter-screen for streptokinase expression inhibitor project, dose response (AID 1900). In kind it is functional, organism-based. For orientation: The purpose of a counterscreen is to sort out artefacts and off-target activity.

The test system of a further assay is H9c2. Nature of the assay: cells. In kind it is functional, cell-based. Conditions: Rattus norvegicus, H9c2, Myocardium.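 Also: confirmatory concentration-response retest of ultra-high-throughput screening hits for modulation of myocardial damage; cell death induced by hydrogen peroxide oxidative stress; compound pretreatment for 60 min then peroxide exposure for 2 h; potency is for protecting the cells against peroxide damage rather than for killing them.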
For the next assay, the system named is Streptococcus. Description: GAS UMAA2166 growth inhibition – luminescence, BacTiterGlo, counter-screen for streptokinase expression inhibitor project, dose response (AID 1915).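 Also: potency for reduction of bacterial viability or growth.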 In kind it is functional, organism-based.

Calls of active or inactive are those of the source.

This is an account of results in ChEMBL document CHEMBL1201862, “PubChem BioAssay data set” (2004).

For orientation: EC50 means the concentration that produces a half-maximal response. As a reminder, the AC50 is the concentration giving half of the maximal activity seen. For orientation: IC50 means the midpoint of a concentration-inhibition curve. The CC50 is the concentration giving 50% cytotoxicity.

T6 sequence (P41145 whole entry): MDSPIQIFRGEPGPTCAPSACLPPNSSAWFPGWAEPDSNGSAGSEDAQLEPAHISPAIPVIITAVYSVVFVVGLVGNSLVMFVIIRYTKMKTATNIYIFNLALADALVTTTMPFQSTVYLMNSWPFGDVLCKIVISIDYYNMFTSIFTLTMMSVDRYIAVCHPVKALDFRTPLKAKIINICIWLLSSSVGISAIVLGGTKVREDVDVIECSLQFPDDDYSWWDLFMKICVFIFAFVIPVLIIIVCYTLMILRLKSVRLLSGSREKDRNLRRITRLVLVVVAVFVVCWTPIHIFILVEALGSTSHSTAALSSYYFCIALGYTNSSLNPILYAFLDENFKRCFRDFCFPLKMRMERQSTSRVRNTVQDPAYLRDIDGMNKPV
Sequence of Polyadenylate-binding protein 1 (P11940 whole entry): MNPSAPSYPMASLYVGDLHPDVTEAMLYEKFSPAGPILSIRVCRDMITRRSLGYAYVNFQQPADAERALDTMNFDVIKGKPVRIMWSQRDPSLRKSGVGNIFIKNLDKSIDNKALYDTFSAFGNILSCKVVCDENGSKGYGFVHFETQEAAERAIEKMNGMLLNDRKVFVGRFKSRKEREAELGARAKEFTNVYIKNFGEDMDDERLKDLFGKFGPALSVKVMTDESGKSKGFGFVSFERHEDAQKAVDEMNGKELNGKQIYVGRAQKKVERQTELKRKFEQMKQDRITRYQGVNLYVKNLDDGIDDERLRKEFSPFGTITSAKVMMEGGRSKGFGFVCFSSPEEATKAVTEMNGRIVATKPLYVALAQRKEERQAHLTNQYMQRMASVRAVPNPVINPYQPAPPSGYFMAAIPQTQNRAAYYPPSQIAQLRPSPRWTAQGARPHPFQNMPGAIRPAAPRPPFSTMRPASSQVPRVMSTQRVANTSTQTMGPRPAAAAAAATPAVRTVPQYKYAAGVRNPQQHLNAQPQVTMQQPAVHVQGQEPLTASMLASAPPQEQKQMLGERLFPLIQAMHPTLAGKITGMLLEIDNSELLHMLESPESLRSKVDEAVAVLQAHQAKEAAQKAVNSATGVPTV
Sequence of Beta-galactosidase (Q8VNN2 whole entry): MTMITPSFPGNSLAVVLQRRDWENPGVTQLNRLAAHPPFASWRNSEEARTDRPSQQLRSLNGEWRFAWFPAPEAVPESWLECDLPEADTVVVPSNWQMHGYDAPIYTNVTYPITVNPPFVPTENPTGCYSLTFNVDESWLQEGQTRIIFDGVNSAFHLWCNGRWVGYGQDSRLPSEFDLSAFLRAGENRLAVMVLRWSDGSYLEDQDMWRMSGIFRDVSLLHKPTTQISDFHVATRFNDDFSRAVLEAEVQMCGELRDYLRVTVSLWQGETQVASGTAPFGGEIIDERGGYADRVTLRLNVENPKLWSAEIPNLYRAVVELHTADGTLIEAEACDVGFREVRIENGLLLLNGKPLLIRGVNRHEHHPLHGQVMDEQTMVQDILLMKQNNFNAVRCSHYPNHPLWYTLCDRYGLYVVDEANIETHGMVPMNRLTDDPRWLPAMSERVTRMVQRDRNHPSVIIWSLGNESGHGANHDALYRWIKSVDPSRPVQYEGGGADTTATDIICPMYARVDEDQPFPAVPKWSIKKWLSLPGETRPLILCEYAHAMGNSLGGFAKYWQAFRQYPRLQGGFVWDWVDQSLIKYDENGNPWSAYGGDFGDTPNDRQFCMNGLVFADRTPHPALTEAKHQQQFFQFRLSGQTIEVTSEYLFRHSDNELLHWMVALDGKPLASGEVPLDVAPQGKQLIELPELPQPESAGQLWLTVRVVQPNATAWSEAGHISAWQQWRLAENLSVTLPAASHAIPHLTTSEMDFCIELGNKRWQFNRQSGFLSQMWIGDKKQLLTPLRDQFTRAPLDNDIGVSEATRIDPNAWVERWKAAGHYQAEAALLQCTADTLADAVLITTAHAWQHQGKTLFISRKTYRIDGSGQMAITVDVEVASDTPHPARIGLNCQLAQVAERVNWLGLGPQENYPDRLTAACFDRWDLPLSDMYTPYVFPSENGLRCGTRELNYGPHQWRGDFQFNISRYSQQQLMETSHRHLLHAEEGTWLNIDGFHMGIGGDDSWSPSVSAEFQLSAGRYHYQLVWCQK
Sequence of DNA dC->dU-editing enzyme APOBEC-3G (Q9HC16 whole entry): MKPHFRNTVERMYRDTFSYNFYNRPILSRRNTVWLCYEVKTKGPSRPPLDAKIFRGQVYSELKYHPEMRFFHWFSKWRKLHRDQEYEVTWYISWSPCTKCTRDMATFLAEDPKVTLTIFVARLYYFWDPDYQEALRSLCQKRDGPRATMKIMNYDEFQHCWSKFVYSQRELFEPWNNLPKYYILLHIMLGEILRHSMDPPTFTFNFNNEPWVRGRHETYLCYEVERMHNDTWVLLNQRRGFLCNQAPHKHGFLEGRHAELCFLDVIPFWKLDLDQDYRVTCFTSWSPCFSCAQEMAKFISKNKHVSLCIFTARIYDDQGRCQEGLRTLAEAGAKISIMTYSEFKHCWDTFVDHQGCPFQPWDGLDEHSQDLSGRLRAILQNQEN
Sequence of Peroxisome proliferator-activated receptor gamma/Nuclear receptor coactivator 2 (P37231 whole entry): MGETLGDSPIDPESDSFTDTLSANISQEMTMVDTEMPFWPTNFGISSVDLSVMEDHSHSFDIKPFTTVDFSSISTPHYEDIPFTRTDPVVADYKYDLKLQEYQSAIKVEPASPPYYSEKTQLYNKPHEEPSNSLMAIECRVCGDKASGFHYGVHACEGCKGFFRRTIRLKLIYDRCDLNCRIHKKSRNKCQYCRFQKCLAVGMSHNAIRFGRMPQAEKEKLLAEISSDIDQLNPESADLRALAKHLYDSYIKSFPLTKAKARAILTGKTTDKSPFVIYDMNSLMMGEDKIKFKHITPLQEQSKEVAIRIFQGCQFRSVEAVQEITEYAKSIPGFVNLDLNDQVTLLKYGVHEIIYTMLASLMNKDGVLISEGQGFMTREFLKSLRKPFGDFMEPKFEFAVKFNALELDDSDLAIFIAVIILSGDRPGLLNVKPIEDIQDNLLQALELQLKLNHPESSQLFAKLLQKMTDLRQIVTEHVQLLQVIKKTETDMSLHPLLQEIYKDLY
Sequence of Peroxisome proliferator-activated receptor gamma/Nuclear receptor coactivator 2 (Q15596 whole entry, further chain): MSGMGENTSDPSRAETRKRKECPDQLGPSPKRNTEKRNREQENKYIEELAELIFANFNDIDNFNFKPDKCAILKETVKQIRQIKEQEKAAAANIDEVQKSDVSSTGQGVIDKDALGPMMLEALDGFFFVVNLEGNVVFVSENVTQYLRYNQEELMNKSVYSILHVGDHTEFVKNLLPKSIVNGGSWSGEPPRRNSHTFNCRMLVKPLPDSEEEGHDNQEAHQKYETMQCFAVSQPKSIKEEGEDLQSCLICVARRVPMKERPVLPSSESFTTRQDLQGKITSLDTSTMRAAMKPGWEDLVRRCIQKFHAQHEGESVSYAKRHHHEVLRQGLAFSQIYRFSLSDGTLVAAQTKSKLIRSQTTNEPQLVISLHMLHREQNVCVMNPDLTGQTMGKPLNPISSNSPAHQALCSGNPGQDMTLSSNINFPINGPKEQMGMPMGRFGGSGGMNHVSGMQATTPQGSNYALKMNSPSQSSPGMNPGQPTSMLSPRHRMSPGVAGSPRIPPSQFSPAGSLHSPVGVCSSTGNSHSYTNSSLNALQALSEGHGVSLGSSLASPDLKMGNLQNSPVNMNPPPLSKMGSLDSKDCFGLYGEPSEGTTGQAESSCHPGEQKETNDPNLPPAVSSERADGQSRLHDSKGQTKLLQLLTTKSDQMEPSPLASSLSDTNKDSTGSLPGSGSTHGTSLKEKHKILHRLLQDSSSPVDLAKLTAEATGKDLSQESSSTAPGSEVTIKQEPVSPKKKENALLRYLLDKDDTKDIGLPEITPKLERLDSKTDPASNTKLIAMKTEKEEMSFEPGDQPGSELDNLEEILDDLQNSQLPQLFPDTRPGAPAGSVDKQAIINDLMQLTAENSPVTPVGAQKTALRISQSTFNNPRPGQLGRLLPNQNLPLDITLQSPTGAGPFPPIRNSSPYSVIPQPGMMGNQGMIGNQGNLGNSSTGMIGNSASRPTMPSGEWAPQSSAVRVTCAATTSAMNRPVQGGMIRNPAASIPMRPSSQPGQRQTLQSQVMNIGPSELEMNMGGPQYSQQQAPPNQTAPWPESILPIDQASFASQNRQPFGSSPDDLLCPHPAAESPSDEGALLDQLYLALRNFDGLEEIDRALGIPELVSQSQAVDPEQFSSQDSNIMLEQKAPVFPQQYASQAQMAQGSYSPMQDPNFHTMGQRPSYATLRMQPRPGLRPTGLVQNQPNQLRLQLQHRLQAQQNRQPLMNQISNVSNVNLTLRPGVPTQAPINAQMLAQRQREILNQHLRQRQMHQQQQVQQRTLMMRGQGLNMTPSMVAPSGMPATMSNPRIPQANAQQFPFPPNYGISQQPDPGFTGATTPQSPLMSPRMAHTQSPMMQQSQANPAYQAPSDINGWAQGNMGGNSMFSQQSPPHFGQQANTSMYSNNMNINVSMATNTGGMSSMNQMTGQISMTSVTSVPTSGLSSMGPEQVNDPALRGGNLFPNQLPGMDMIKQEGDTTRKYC

Turning to `O=C(O)c1ccc2c(c1)C(=O)/C(=C\c1ccco1)C2=O`, the EC50 in assay [1] is 32.1 µM (active); in assay [3] it was > 300 µM (not active). Also, on ORF 73, the AC50 was 133 µM (active). Further, the figures for the half-inhibitory concentration (IC50) (in [2]; at Genome polyprotein) were 89.2 µM (active) and 12.3 µM (active), respectively.

`CC1=C/C(=N\NC(=S)Nc2cccnc2)CC(C)(C)C1`: in [4], the AC50 is 11 µM (active). The EC50 on Beta-galactosidase was > 31.5 µM (inactive). Besides, the IC50 in assay [5] is over 32 µM; in assay [6] it was 9.46 µM (active).

Regarding `CCN(CC)c1ccc(NC(=O)c2ccccn2)cc1S(=O)(=O)Nc1ccccc1OC`, the IC50 in assay [7] was 69.2 µM (active).

Take `O=C(Nc1nnc(-c2ccco2)o1)c1ccc([N+](=O)[O-])s1`: the CC50 in assay [8] is 11.6 µM (active); in [9], > 20 µM (active); in assay [10], 17.4 µM (active). For the same molecule, the IC50 in “cells” was 9.81 µM (active).

Turning to `O=C(COc1ccc(C=NNC(=O)c2ccc(O)cc2)cc1)Nc1ccc([N+](=O)[O-])cc1`, the IC50 in [11] was 5.8 µM (active); in [12], > 100 µM (inactive).

For `COc1ccc(Cn2c(-c3ccc(C)cc3)nc3c(c(=O)c4ccccc4n3C)c2=O)cc1`, the EC50 in assay [13], in assay [14] and in assay [15] was > 79.4 µM (not active) throughout.

Turning to `CCCn1c(NC(=O)c2ccccc2)nc2ccccc21`, the figures for the CC50 in assay [8], in [9] and in assay [10] were > 20 µM (active), > 20 µM (active) and 35.9 µM (active), respectively. In addition, the EC50 on Streptokinase A was > 150 µM (not active); in assay [16], 2.56 µM (active); in the assay with Streptococcus, > 150 µM (not active). The IC50 in the assay “cells” was 1.75 µM (active); in the assay with H9c2, > 79 µM (inactive).

As to `COc1ccc(Cl)cc1NC(=O)COC(=O)c1ccc(NC(N)=O)cc1`, the IC50 in [11] and in [12] was > 100 µM (inactive) throughout.

For the molecule `CCn1c(SCc2nc(O)c3c(C)c(C(=O)O)sc3n2)nc2ccccc21`, the AC50 on ORF 73 is 32.2 µM (active).
